Counter-ions that a name gives are not always drawn. A value given as a limit tells only on which side of the number the result lay.

One data set in a line: in vitro. The settings on record: PAMPA, PAMPA-BBB Pe. Background: In PAMPA a lipid-coated filter parts donor from acceptor wells.
The term Papp denotes a coefficient for how fast a substance crosses the barrier. Low readings indicate poor permeation, high ones ready permeation. In turn, `CCOC(=O)c1ccc(N)cc1` [BENZOCAINE] showed a Papp of 99 ×10⁻⁶ cm/s.

The compound `COc1cc2c(cc1OC)[C@@]13CCN4CC5=CCO[C@H]6CC(=O)N2[C@H]1[C@H]6[C@H]5C[C@H]43` [BRUCINUM] showed a Papp of 16 ×10⁻⁶ cm/s.

In turn, `CC(C)(O)CC[C@@H](O)[C@](C)(O)[C@H]1CC[C@@]2(O)C3=CC(=O)[C@@H]4C[C@@H](O)[C@@H](O)C[C@]4(C)[C@H]3CC[C@]12C` [COMMISTERONE] had a Papp of 14 ×10⁻⁶ cm/s.

Still in this data set, the particulars now being: PAMPA, PAMPA-BBB Pe(10^-6 cm/sec).
For `COc1cc(/C=C/C(N)=O)cc(OC)c1OC` [CINTRIAMIDE], the Papp stood at 2.3 ×10⁻⁶ cm/s.

`COc1cc2c(c(OC)c1OC)-c1ccc(OC)c(=O)cc1[C@@H](NC(C)=O)CC2` [COLCHCINE] came in with a Papp of under 1 ×10⁻⁶ cm/s.

Compound `O=c1cccc2n1C[C@@H]1CNC[C@H]2C1` [CYTISINE] displayed a Papp of under 1 ×10⁻⁶ cm/s.

As to `CN(C)[C@@H]1C(O)=C(C(N)=O)C(=O)[C@@]2(O)C(O)=C3C(=O)c4c(O)ccc(Cl)c4[C@@H](O)[C@H]3C[C@@H]12` [DEMECLOCYCLINE HYDROCHLORIDE], the Papp was 1.5 ×10⁻⁶ cm/s.

The data set is the same for the next values; noted with them: PAMPA, PAMPA-BBB Pe(10^-6 cm/sec), Table S3: compounds exhibiting low PAMPA-BBB permeability.
`O=C(OCC1=C[C@@H](O)[C@@H]2C=CO[C@@H](O[C@@H]3O[C@H](CO)[C@@H](O)[C@H](O)[C@H]3O)[C@H]12)c1ccc(O)cc1` [AGNUSIDE] yielded an apparent permeability coefficient (Papp) of under 1 ×10⁻⁶ cm/s.

On to `O=C1c2c(O)cccc2[C@H]([C@@H]2O[C@H](CO)[C@@H](O)[C@H](O)[C@H]2O)c2cc(CO)cc(O)c21` [ALOIN A], for which the Papp stood at 5.4 ×10⁻⁶ cm/s.

In turn, `c1cncc([C@@H]2CCCCN2)c1` [ANABASINE] gave a Papp of 3.4 ×10⁻⁶ cm/s.

`O=c1cc(-c2ccc(O)cc2)oc2cc(O[C@@H]3O[C@H](CO)[C@@H](O)[C@H](O)[C@H]3O[C@@H]3OC[C@](O)(CO)[C@H]3O)cc(O)c12` [APIIN] yielded a Papp of 2 ×10⁻⁶ cm/s.

In turn, `CC1=C(/C=C/C(C)=C/C=C/C(C)=C/C=C/C=C(C)/C=C/C=C(\C)C=O)C(C)(C)CCC1` [APOCAROTENAL] had a Papp of under 1 ×10⁻⁶ cm/s.

For `Nc1nc2c(ncn2[C@@H]2O[C@H](CO)[C@@H](O)[C@@H]2O)c(=O)[nH]1` [ARAGUANOSINE], the Papp is under 1 ×10⁻⁶ cm/s.

Consider `OC[C@H]1O[C@@H](Oc2ccc(O)cc2)[C@H](O)[C@@H](O)[C@@H]1O` [ARBUTIN], for which the apparent permeability (Papp) was under 1 ×10⁻⁶ cm/s.

Turning to `COc1cccc2c1cc([N+](=O)[O-])c1c(C(=O)O)cc3c(c12)OCO3` [ARISTOLOCHIC ACID], the Papp is under 1 ×10⁻⁶ cm/s.

`Nc1ncn([C@@H]2O[C@H](CO)[C@@H](O)[C@H]2O)c(=O)n1` [AZACITIDINE] showed a Papp of under 1 ×10⁻⁶ cm/s.

In turn, `O=[N+]([O-])c1ncc[nH]1` [AZOMYCIN] came in with a Papp of under 1 ×10⁻⁶ cm/s.

`CC(=O)O[C@H]1C(=O)[C@@]2(C)[C@H]([C@H](OC(=O)c3ccccc3)[C@]3(O)C[C@H](O)C(C)=C1C3(C)C)[C@]1(OC(C)=O)CO[C@@H]1C[C@@H]2O` [BACCATIN III] registered a Papp of under 1 ×10⁻⁶ cm/s.

In turn, `O=C(O)[C@H]1O[C@@H](Oc2cc3oc(-c4ccccc4)cc(=O)c3c(O)c2O)[C@H](O)[C@@H](O)[C@@H]1O` [BAICALIN] returned a Papp of 1.3 ×10⁻⁶ cm/s.

In the case of `COc1ccc2cc3[n+](cc2c1OC)CCc1cc2c(cc1-3)OCO2` [BERBERINE HYDROCHLORIDE], the Papp is under 1 ×10⁻⁶ cm/s.

The compound `CC(C)=CCC/C(C)=C/COc1c2ccoc2cc2oc(=O)ccc12` [BERGAMOTTIN] showed a Papp of 5.8 ×10⁻⁶ cm/s.

For `COc1c(O)cc2c(c1O)[C@@H]1O[C@H](CO)[C@@H](O)[C@H](O)[C@H]1OC2=O` [BERGENIN], the Papp was under 1 ×10⁻⁶ cm/s.

Compound `CC1=C(/C=C/C(C)=C/C=C/C(C)=C/C=C/C=C(C)/C=C/C=C(C)/C=C/C2=C(C)CCCC2(C)C)C(C)(C)CCC1` [BETA CAROTENE] displayed a Papp of 9.2 ×10⁻⁶ cm/s.

`Oc1ccc2c(c1)OC[C@]1(O)Cc3cc(O)c(O)cc3[C@H]21` [BRAZILIN]: the Papp was found to be 1.9 ×10⁻⁶ cm/s.

Regarding `O=C(/C=C/c1ccc(O)c(O)c1)c1ccc(O)cc1O` [BUTEIN], the Papp was under 1 ×10⁻⁶ cm/s.

`O=C(O)/C=C/c1ccc(O)c(O)c1` [CAFFEIC ACID] came in with a Papp of under 1 ×10⁻⁶ cm/s.

Turning to `COc1ccc2c(c1OC)CN1CCc3cc4c(cc3[C@@H]1C2)OCO4` [CANADINE], the Papp was 5.5 ×10⁻⁶ cm/s.

As to `COc1ccc2cc1Oc1ccc(cc1)C[C@H]1c3c(cc4c(c3Oc3cc5c(cc3OC)CCN(C)[C@@H]5C2)OCO4)CCN1C` [CEPHARANTHINE], the Papp is under 1 ×10⁻⁶ cm/s.

As for `CO[C@H]1[C@@H](O)[C@@H](C)O[C@H](O[C@H]2[C@H](Oc3cccc4c(O)c5c(=O)oc6ccc(C)c7c(=O)oc(c34)c5c67)O[C@H](C)[C@H](O)[C@@H]2O)[C@@H]1O` [CHARTREUSIN], the Papp was 4 ×10⁻⁶ cm/s.

For `O=C(/C=C/c1ccc(O)c(O)c1)O[C@@H]1C[C@](O)(C(=O)O)C[C@@H](O)[C@H]1O` [CHLOROGENIC ACID], the Papp was under 1 ×10⁻⁶ cm/s.

`C=C1CC[C@H](O)C/C1=C/C=C1\CCC[C@]2(C)[C@@H]([C@H](C)CCCC(C)C)CC[C@@H]12` [CHOLECALCIFEROL]: the Papp is under 1 ×10⁻⁶ cm/s.

With `CO[C@@H]1[C@H](O)C[C@@H](O[C@@H]2C[C@H](Oc3cc4cc5c(c(O)c4c(O)c3C)C(=O)[C@@H](O[C@H]3C[C@@H](O[C@H]4C[C@@H](O[C@H]6C[C@](C)(O)[C@@H](OC(C)=O)[C@H](C)O6)[C@H](O)[C@@H](C)O4)[C@H](O)[C@@H](C)O3)[C@H]([C@H](OC)C(=O)[C@@H](O)[C@@H](C)O)C5)O[C@H](C)[C@@H]2OC(C)=O)O[C@@H]1C` [CHROMOMYCIN A3], the Papp is under 1 ×10⁻⁶ cm/s.

With `N[C@@H](Cc1c[nH]c2ccc(O)cc12)C(=O)O` [CINCOFARM], the Papp was under 1 ×10⁻⁶ cm/s.

`O=C(O)/C=C/c1ccccc1` [CINNAMIC ACID] registered a Papp of under 1 ×10⁻⁶ cm/s.

The compound `C=CC(C)=CCC=C(C)C` [CIS BETA OCIMENE] displayed a Papp of 3.9 ×10⁻⁶ cm/s.

`CC(C)(COP(=O)(O)OP(=O)(O)OC[C@H]1O[C@@H](n2cnc3c(N)ncnc32)[C@H](O)[C@@H]1OP(=O)(O)O)[C@@H](O)C(=O)NCCC(=O)NCCS` [COENZYME A] came in with a Papp of under 1 ×10⁻⁶ cm/s.

The compound `Nc1ncnc2c1ncn2[C@@H]1O[C@H](CO)C[C@H]1O` [CORDYCEPIN] came in with a Papp of under 1 ×10⁻⁶ cm/s.

`O=c1cc(-c2ccc(O)cc2)oc2cc(O[C@H]3OC(CO)C(O)C(O)C3O)cc(O)c12` (some centres unmarked) [COSMOSIOSIDE]: the Papp was 1.6 ×10⁻⁶ cm/s.

`COc1c2c(cc3c1OCO3)CC[N+](C)=C2` [COTARNINIUM] registered a Papp of under 1 ×10⁻⁶ cm/s.

`CN1C(=O)CC[C@H]1c1cccnc1` [COTININE] came in with a Papp of under 1 ×10⁻⁶ cm/s.

`CC(/C=C/C=C(\C)C(=O)O[C@@H]1O[C@H](CO[C@@H]2O[C@H](CO)[C@@H](O)[C@H](O)[C@H]2O)[C@@H](O)[C@H](O)[C@H]1O)=C\C=C\C=C(C)\C=C\C=C(/C)C(=O)O[C@@H]1O[C@H](CO[C@@H]2O[C@H](CO)[C@@H](O)[C@H](O)[C@H]2O)[C@@H](O)[C@H](O)[C@H]1O` [CROCIN] registered a Papp of 6.1 ×10⁻⁶ cm/s.

Regarding `CC(C=O)Cc1ccc(C(C)C)cc1` (centres unmarked) [CYCLAMEN ALDEHYDE], the Papp came to 8.2 ×10⁻⁶ cm/s.

In turn, `O=C(/C=C/c1ccc(O)c(O)c1)O[C@@H]1C[C@@](OC(=O)/C=C/c2ccc(O)c(O)c2)(C(=O)O)C[C@@H](O)[C@@H]1O` [CYNARINE] yielded a Papp of under 1 ×10⁻⁶ cm/s.

`O=c1c(-c2ccc(O)cc2)coc2cc(O[C@@H]3O[C@H](CO)[C@@H](O)[C@H](O)[C@H]3O)ccc12` [DAIDZIN] registered a Papp of under 1 ×10⁻⁶ cm/s.

`O=c1ccc2ccc(O)c(O)c2o1` [DAPHNETIN] had a Papp of 3.8 ×10⁻⁶ cm/s.

With `O=c1ccc2ccc(O[C@@H]3O[C@H](CO)[C@@H](O)[C@H](O)[C@H]3O)c(O)c2o1` [DAPHNIN], the Papp was under 1 ×10⁻⁶ cm/s.

For `O=c1c(O)c(-c2ccccc2O)oc2cc(O)cc(O)c12` [DATISCETIN], the Papp worked out at 2.2 ×10⁻⁶ cm/s.

Regarding `CC(C)Nc1nc(N)nc(Cl)n1` [DEETHYLATRAZINE], the Papp worked out at 6.8 ×10⁻⁶ cm/s.

The data set is the same for the next values; noted with them: PAMPA, PAMPA-BBB Pe, Table S2: compounds exhibiting moderate to high PAMPA-BBB permeability.
Take `C[C@]12CCC(=O)C=C1CC[C@@H]1[C@@H]2C(=O)C[C@]2(C)C(=O)CC[C@@H]12` [ADRENOSTERONE]: the Papp was 41 ×10⁻⁶ cm/s.

In turn, `CC[C@@]1(O)C[C@H](O[C@H]2C[C@H](N(C)C)[C@H](O)[C@H](C)O2)c2c(cc3c(c2O)C(=O)c2c(O)cccc2C3=O)[C@H]1C(=O)OC` [AKLAVINE] displayed a Papp of 116 ×10⁻⁶ cm/s.

The compound `Cc1ccnc(N)c1` [AMINOPICOLINE] displayed a Papp of 13 ×10⁻⁶ cm/s.

`CN1CCCCC1c1ccc(-c2cccnc2)nc1` (centres unmarked) [ANABASAMINE] came in with a Papp of 31 ×10⁻⁶ cm/s.

`C/C=C/c1ccc(OC)cc1` [ANETHOLE]: the Papp came out at 120 ×10⁻⁶ cm/s.

Compound `O=C1c2c(O)cc(O)cc2O[C@@H](c2ccc(O)cc2)[C@@H]1O` [AROMADENDRINE] displayed a Papp of 58 ×10⁻⁶ cm/s.

Regarding `O=C(/C=C/c1ccccc1)OCc1ccccc1` [BENZYL CINNAMATE], the Papp was over 424 ×10⁻⁶ cm/s.

Compound `C/C(=C\COc1c2ccoc2cc2oc(=O)ccc12)CCC(O)C(C)(C)O` (centres unmarked) [BERGAMOTTIN DIHYDROXYBERGAMOTTIN] displayed a Papp of 55 ×10⁻⁶ cm/s.

`O=C1NC(=O)C(c2c[nH]c3ccccc23)=C1c1c[nH]c2ccccc12` [BISINDOLYLMALEIMIDE] gave a Papp of over 654 ×10⁻⁶ cm/s.

For `COc1cc2c(cc1O)C[C@H]1c3c(cc(O)c(OC)c3-2)CCN1C` [BOLDINE], the Papp worked out at 49 ×10⁻⁶ cm/s.

With `C[C@]12CC[C@H](O)C[C@H]1CC[C@@H]1[C@@H]2CC[C@]2(C)[C@@H](c3ccc(=O)oc3)C[C@H]3O[C@]132` [BUFOGENIN], the Papp stood at 115 ×10⁻⁶ cm/s.

The compound `CCN1C[C@@]2(COC)CCC(OC)[C@@]34[C@@H]1C([C@H](OC)[C@H]23)[C@@]1(OC(C)=O)C[C@H](OC)[C@@]2(O)C[C@H]4C1[C@H]2OC(=O)c1ccc(OC)cc1` (some centres unmarked) [BULLE[…]] registered an apparent permeability coefficient (Papp) of 17 ×10⁻⁶ cm/s.

With `Cc1ccc(C(C)C)cc1O` [CARVACROL], the Papp came to 111 ×10⁻⁶ cm/s.

For `COc1ccc(-c2oc3cc(O[C@@H]4O[C@H](CO)[C@@H](O)[C@H](O)[C@H]4O)c(OC)c(O)c3c(=O)c2OC)cc1O` [CENTAUREIN], the Papp was found to be 38 ×10⁻⁶ cm/s.

Turning to `COc1ccc2c(c[n+](C)c3c4cc5c(cc4ccc23)OCO5)c1OC` [CHELE[…]], the Papp turned out to be 95 ×10⁻⁶ cm/s.

Regarding `COc1cc(-c2cc(=O)c3c(O)cc(O)cc3o2)ccc1O` [CHRYSERIOL], the Papp is 179 ×10⁻⁶ cm/s.

Consider `C=C[C@H]1C[N@@]2CC[C@H]1C[C@@H]2[C@@H](O)c1ccnc2ccccc12` [CINCHONINE], for which the Papp was 22 ×10⁻⁶ cm/s.

For the compound `CC(=O)OCC=Cc1ccccc1` [CINNAMYL ACETATE], the apparent permeability coefficient (Papp) is 88 ×10⁻⁶ cm/s.

`O=c1ccc2ccccc2o1` [COUMARIN] displayed a Papp of 74 ×10⁻⁶ cm/s.

`COc1cc(/C=C/c2ccccc2)oc(=O)c1` [DEMETHOXYYANGONIN] came in with a Papp of 186 ×10⁻⁶ cm/s.

Values taken from article PMC11876671, “Investigating blood–brain barrier penetration and neurotoxicity of natural products for central nervous system drug development” (Scientific Reports, 2025).
